Data taken from patent US6686467B2, “Amide derivatives for the treatment of diseases mediated by cytokines” (Zeneca Limited, priority 1997, dated 2004).

Key:
[1] = test system: TNFα production by human peripheral blood mononuclear cells; assay: PBMC test: TNFα production after lipopolysaccharide stimulation; assay type: cell-based; conditions: LPS-stimulated TNFα production
Protocol: The ability of compounds of this invention to inhibit TNFα production was assessed by using human peripheral blood mononuclear cells which synthesise and secrete TNFα when stimulated with lipopolysaccharide.
Peripheral blood mononuclear cells (PBMC) were isolated from heparinised (10 units/ml heparin) human blood by density centrifugation (Lymphoprep™; Nycomed). Mononuclear cells were resuspended in culture medium [RPMI 1640 medium (Gibco) supplemented with 50 units/ml penicillin, 50 μg/ml streptomycin, 2 mM glutamine and 1% heat-inactivated human AB serum (Sigma H-1513)]. Compounds were solubilised in DMSO at a concentration of 50 mM, diluted 1:100 in culture medium and subsequently serial dilutions were made in culture medium containing 1% DMSO. PBMCs (2.4×10^5 cells in 160 μl culture medium) were incubated with 20 μl of varying concentrations of test compound (triplicate cultures) or 20 μl culture medium containing 1% DMSO (control wells) for 30 minutes at 37° C. in a humidified (5%CO2/95% air) incubator (Falcon 3072; 96 well flat-bottom tissue culture plates). 20 μl lipopolysaccharide [LPS E.Coli 0111:B4 (Sigma L-4130), final concentration 10 μg/ml] solubilised in culture medium was added to appropriate 30 wells. 20 μl culture medium was added to “medium alone” control wells. Six “LPS alone” and four “medium alone” controls were included on each 96 well plate. Varying concentrations of a known TNFα inhibitor were included in each test, i.e. an inhibitor of the PDE Type IV enzyme (for example see Semmler, J. Wachtel. H and Endres. S., Int. J. Immunopharmac. (1993), 15(3), 409-413) or an inhibitor of proTNFα convertase (for example, see McGeehan, G. M. et al. Nature (1994) 370, 558-561). Plates were incubated for 7 hours at 37° C. (humidified incubator) after which 100 μl of the supernatant was removed from each well and stored at −70° C. (96 well round-bottom plates; Corning 25850). TNFα levels were determined in each sample using a human TNFα ELISA (see WO92/10190 and Current Protocols in Molecular Biology, vol 2 by Frederick M. Ausbel et al., John Wiley and Sons Inc.). [formula]

[2] = target: T1, p38α (Homo sapiens, UniProt Q16539); assay: In vitro enzyme assay, p38α isoform; assay type: biochemical; conditions: read-out: IC50 against p38α
T1 construct: c-myc (N); 6His (N); made in house; host or cells: E. coli (PET vectors)
T1 sequence (Q16539 whole entry, canonical isoform): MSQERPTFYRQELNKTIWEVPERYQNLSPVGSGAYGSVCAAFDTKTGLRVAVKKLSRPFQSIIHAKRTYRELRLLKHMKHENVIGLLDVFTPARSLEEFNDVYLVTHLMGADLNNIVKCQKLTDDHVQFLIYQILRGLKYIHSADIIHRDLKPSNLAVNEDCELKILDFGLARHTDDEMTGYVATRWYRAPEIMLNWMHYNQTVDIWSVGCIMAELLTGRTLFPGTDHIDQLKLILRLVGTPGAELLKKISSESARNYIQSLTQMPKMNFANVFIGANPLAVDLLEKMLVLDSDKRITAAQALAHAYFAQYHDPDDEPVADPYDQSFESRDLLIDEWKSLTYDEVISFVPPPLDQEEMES
Protocol: The ability of compounds of the invention to inhibit the enzyme p38 kinase was assessed. Activity of particular test compounds against each of the p38α and p38β isoforms of the enzyme was determined.
Human recombinant MKK6 (GenBank Accesion Number G1209672) was isolated from Image clone 45578 (Genomics, 1996, 33, 151) and utilised to produce protein in the form of a GST fusion protein in a pGEX vector using analogous procedures to those disclosed by J. Han et al., Journal of Biological Chemistry, 1996, 271, 2886-2891, p38α (GenBank Accession Number G529039) and p38β (GenBank Accession Number G1469305) were isolated by PCR amplification of human lymphoblastoid cDNA (GenBank Accession Number GM1416) and human foetal brain cDNA [synthesised from mRNA (Clontech, catalogue no. 6525-1) using a Gibco superscript cDNA synthesis kit] respectively using oligonucleotides designed for the 5′ and 3′ ends of the human p38α and p38β genes using analogous procedures to those described by J. Han et al., Biochimica et Biophysica Acta, 1995, 1265, 224-227 and Y. Jiang et al. Journal of Biological Chemistry 1996, 271, 17920-17926.
Both p38 protein isoforms were expressed in e coli in PET vectors. Human recombinant p38α and p38β isoforms were produced as 5′ c-myc, 6His tagged proteins. Both MKK6 and the p38 proteins were purified using standard protocols: the GST MKK6 was purified using a glutathione sepharose column and the p38 proteins were purified using nickel chelate columns.
The p38 enzymes were activated prior to use by incubation with MKK6 for 3 hours at 30° C. The unactivated coli-expressed MKK6 retained sufficient activity to fully activate both isoforms of p38. The activation incubate comprised p38α (10 μl of 10 mg/ml) or p38β (10 μl of 5 mg/ml) together with MKK6 (1 μl of 1 mg/ml), ‘Kinase buffer’ [100 μl; pH 7.4 buffer comprising Tris (50 mM), EGTA (0.1 mM), sodium orthovanadate (0.1 mM) and β-mercaptoethanol (0.1%)] and MgATP (30 μl of 50 mM Mg(OCOCH3)2 and 0.5 mM ATP). This produced enough activated p38 enzyme for 3 Microtiter plates.
Test compounds were solubilised in DMSO and 10 μl of a 1:10 diluted sample in ‘Kinase Buffer’ was added to a well in a Microtiter plate. For single dose testing, the compounds were tested at 10 μM. ‘Kinase Assay Mix’ [30 μl; comprising Myelin Basic Protein (Gibco BRL cat. no. 1322B-010; 1 ml of a 3.33 mg/ml solution in water), activated p38 enzyme (50 μl) and ‘Kinase Buffer’ (2 ml)] was then added followed by ‘Labelled ATP’ [10 μl; comprising 50 μM ATP, 0.1 μCi ^33P ATP (Amersham International cat. no. BF1000) and 50 mM Mg(OCOCH3)2]. The plates were incubated at room temperature with gentle agitation. Plates containing p38α were incubated for 90 min and plates containing p38β were incubated for 45 min. Incubation was stopped by the addition of 50 μl of 20% trichloroacetic acid (TCA). The precipitated protein was phosphorylated by p38 kinase and test compounds were assessed for their ability to inhibit this phosphorylation. The plates were filtered using a Canberra Packard Unifilter and washed with 2% TCA, dried overnight and counted on a Top Count scintillation counter.
(§1) Test compounds were tested initially at a single dose and active compounds were retested to allow IC50 values to be determined.

[3] = test system: p38 kinase; assay: In vitro enzyme assay, p38 kinase (isoform not specified, or p38α and/or p38β); assay type: biochemical, human; conditions: result in words
Protocol: The ability of compounds of the invention to inhibit the enzyme p38 kinase was assessed. Activity of particular test compounds against each of the p38α and p38β isoforms of the enzyme was determined. […]
Test compounds were solubilised in DMSO and 10 μl of a 1:10 diluted sample in ‘Kinase Buffer’ was added to a well in a Microtiter plate. […] The precipitated protein was phosphorylated by p38 kinase and test compounds were assessed for their ability to inhibit this phosphorylation. The plates were filtered using a Canberra Packard Unifilter and washed with 2% TCA, dried overnight and counted on a Top Count scintillation counter.
as §1

Row | Structure (SMILES) | melting point | IC50 [1] | IC50 [2] | p38 kinase inhibitory activity [3]
1 | Cc1ccc(NC(=O)CCCC2CCCCC2)cc1NC(=O)c1ccc(O)cc1 [N-[5-(4-Cyclohexylbutyrylamino)-2-methylphenyl]-4-hydroxybenzamide] | 159 to 160 °C |  |  | 
2 | COc1ccc(C(=O)Nc2cc(NC(=O)c3cccc(N)c3)ccc2C)cc1OC [Example 13, N-[5-(3-aminobenzamido)-2-methylphenyl]-3,4-dimethoxybenzamide] | 179 to 180 °C | ~7000 nM | ~700 nM | 
3 | Cc1ccc(NC(=O)c2ccc(C#N)cc2)cc1NC(=O)c1ccc(O)cc1 [Example 4, N-[5-(4-Cyanobenzamido)-2-methylphenyl]-4-hydroxybenzamide] | 297 to 299 °C |  |  | 
4 | Cc1ccc(NC(=O)CCC2CCCC2)cc1NC(=O)c1ccc(O)cc1 [N-[5-(3-cyclopentylpropionamido)-2-methylphenyl]-4-hydroxybenzamide] |  |  | ~6000 nM | 
5 | Cc1ccc(NC(=O)c2cccc(N(C)C)c2)cc1NC(=O)c1ccccc1O [Example 30, N-[5-(3-dimethylaminobenzamido)-2-methylphenyl]-2-hydroxybenzamide] | 234 to 238 °C |  |  | 
6 | Cc1ccc(NC(=O)c2cccc(N(C)C)c2)cc1NC(=O)c1ccc(O)cc1 [N-[5-(3-Dimethylaminobenzamido)-2-methylphenyl]-4-hydroxybenzamide] |  |  |  | possess p38 kinase inhibitory activity
7 | COc1ccc(C(=O)Nc2cc(NC(=O)c3cccc(Br)c3)ccc2C)cc1OC [Example 6, N-[5-(3-bromobenzamido)-2-methylphenyl]-3,4-dimethoxybenzamide] | 136 to 138 °C |  |  | 
8 | COc1ccc(C(=O)Nc2cc(NC(=O)c3cccc(NC(C)=O)c3)ccc2C)cc1OC [Example 33, N-[5-(3-acetamidobenzamido)-2-methylphenyl]-3,4-dimethoxybenzamide] | 187 to 188 °C |  |  | 

Results, then the compound that gave them:

Row | melting point | IC50 [1] | IC50 [2] | p38 kinase inhibitory activity [3] | Structure (SMILES)
9 | 258 to 259 °C |  |  |  | COc1ccc(C(=O)Nc2cc(NC(=O)c3ccc(O)cc3)ccc2C)cc1OC [Example 10, N-[5-(4-hydroxybenzamido)-2-methylphenyl]-3,4-dimethoxybenzamide]
10 |  | ~22000 nM | ~1700 nM |  | Cc1ccc(NC(=O)c2c(F)cccc2Cl)cc1NC(=O)c1ccc(O)cc1 [Example 9, Compound No. 12]
11 |  | ~1500 nM | ~40 nM |  | Cc1ccc(NC(=O)c2cccc(N3CCOCC3)c2)cc1NC(=O)c1cccc(N2CCOCC2)c1 [Example 9, Compound No. 50, N-[2-methyl-5-(3-morpholinobenzamido)phenyl]-3-morpholinobenzamide]
12 |  | ~7000 nM | ~200 nM |  | COc1ccc(C(=O)Nc2cc(NC(=O)c3cccc(N(C)C)c3)ccc2C)cc1OC [Example 9, Compound No. 7, N-[5-(3-dimethylaminobenzamido)-2-methylphenyl]-3,4-dimethoxybenzamide]
13 |  | ~3000 nM | ~700 nM |  | Cc1ccc(NC(=O)c2ccccc2)cc1NC(=O)c1cccc(CN2CCN(C)CC2)c1 [Example 9, Compound No. 51, N-(5-benzamido-2-methylphenyl)-3-(4-methylpiperazin-1-yl)methylbenzamide]
14 | 182 to 183 °C |  |  |  | COc1ccc(C(=O)Nc2cc(NC(=O)c3cccc(O)c3)ccc2C)cc1OC [Example 11, N-[5-(3-hydroxybenzamido)-2-methylphenyl]-3,4-dimethoxybenzamide]
15 |  | ~7000 nM | ~400 nM |  | Cc1ccc(NC(=O)CCC2CCCCC2)cc1NC(=O)c1ccc(O)cc1 [N-[5-(3-cyclohexylpropionamido)-2-methylphenyl]-4-hydroxybenzamide]
